{"source": "paper PMC11233931", "about": "“Remodeling tumor‐associated macrophage for anti‐cancer effects by rational design of irreversible inhibition of mitogen‐activated protein kinase‐activated protein kinase 2” (MedComm, 2024)", "key": {"[1]": {"biological_target": "T1, 380 human recombinant protein kinases (Homo sapiens, UniProt O60331)", "T1 construct": "purchased Eurofins (Celle Lévescault)", "T1 sequence (O60331 whole entry)": "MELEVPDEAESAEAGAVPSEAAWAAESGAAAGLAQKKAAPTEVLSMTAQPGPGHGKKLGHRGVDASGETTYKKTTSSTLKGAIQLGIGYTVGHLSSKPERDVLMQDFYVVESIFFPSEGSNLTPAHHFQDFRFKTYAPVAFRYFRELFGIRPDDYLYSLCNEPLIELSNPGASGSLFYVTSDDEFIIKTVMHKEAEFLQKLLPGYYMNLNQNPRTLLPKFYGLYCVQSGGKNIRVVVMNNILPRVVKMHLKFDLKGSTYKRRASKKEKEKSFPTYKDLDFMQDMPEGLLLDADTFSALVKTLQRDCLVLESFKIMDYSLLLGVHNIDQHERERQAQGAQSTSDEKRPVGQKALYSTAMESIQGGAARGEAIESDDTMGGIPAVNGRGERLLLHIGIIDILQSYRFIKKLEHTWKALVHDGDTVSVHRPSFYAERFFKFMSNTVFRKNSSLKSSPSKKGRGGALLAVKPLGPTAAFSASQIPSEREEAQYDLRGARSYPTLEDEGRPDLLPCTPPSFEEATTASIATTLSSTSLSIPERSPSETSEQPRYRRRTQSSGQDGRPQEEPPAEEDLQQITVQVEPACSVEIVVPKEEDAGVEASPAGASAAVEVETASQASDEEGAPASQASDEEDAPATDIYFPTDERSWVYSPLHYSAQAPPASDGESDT", "assay": "Eurofins kinase selectivity profile against 380 other human recombinant kinases (Table S2)", "assay_type": "biochemical", "conditions": "PIP5K1γ(h), read-out: Inhibition rate (%)", "outline": "(§1)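 Profiling against 380 human recombinant kinases carried out by Eurofins at various compound concentrations.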"}, "[2]": {"biological_target": "T2, 380 human recombinant protein kinases (Homo sapiens, UniProt P29317)", "T2 construct": "purchased Eurofins (Celle Lévescault)", "T2 sequence (P29317 24-976)": "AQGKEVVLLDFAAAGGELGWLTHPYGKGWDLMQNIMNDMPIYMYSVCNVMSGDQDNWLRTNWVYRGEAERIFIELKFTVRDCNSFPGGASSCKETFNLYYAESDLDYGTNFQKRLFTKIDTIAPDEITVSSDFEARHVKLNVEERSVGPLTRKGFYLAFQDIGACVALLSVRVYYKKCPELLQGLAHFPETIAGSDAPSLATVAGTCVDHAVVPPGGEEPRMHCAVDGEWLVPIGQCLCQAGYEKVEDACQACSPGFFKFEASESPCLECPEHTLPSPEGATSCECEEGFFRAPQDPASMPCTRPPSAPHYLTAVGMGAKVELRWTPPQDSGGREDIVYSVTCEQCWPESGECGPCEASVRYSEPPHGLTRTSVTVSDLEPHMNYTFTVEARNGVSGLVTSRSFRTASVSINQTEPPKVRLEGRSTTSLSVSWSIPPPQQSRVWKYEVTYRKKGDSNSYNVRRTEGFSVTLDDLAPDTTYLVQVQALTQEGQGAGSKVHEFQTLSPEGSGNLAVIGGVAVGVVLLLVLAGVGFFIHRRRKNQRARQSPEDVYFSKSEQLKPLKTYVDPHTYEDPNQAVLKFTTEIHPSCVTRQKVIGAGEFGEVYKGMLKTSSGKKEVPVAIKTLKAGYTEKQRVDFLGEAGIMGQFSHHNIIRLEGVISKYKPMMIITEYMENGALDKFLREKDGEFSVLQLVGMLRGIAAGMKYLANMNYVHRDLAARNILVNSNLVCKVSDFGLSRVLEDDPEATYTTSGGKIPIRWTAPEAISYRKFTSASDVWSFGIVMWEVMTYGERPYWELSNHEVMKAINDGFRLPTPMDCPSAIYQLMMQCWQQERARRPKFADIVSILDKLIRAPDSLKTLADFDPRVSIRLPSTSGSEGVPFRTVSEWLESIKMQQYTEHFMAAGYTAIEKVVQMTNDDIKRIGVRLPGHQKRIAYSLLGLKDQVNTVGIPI", "assay": "Eurofins kinase selectivity profile against 380 other human recombinant kinases (Table S2)", "assay_type": "biochemical", "conditions": "EphA2(h), read-out: Inhibition rate", "outline": "as §1"}, "[3]": {"biological_target": "T3, 380 human recombinant protein kinases (Homo sapiens, UniProt P50750)", "T3 construct": "purchased Eurofins (Celle Lévescault)", "T3 sequence (P50750 whole entry)": "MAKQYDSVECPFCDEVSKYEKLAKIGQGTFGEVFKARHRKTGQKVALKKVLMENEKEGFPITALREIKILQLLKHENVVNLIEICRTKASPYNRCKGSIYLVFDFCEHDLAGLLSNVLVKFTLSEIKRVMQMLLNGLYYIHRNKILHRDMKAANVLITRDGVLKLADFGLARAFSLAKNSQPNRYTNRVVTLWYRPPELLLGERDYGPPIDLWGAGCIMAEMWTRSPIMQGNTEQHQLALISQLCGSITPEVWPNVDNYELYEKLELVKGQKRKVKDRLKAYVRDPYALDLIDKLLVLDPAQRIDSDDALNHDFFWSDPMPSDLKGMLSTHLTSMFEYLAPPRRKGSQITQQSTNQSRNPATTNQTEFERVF", "assay": "Eurofins kinase selectivity profile against 380 other human recombinant kinases (Table S2)", "assay_type": "biochemical", "conditions": "CDK9/cyclin T1(h), read-out: Inhibition rate", "outline": "as §1"}, "[4]": {"biological_target": "T4, 380 human recombinant protein kinases (Homo sapiens, UniProt Q00534)", "T4 construct": "purchased Eurofins (Celle Lévescault)", "T4 sequence (Q00534 whole entry)": "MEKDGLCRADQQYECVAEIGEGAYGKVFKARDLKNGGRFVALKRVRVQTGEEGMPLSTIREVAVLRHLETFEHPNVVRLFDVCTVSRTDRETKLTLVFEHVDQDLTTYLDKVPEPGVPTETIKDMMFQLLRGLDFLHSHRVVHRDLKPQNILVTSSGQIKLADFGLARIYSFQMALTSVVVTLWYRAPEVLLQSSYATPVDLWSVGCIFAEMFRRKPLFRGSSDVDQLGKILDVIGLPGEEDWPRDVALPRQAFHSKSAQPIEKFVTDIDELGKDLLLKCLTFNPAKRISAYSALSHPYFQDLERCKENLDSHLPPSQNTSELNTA", "assay": "Eurofins kinase selectivity profile against 380 other human recombinant kinases (Table S2)", "assay_type": "biochemical", "conditions": "CDK6/cyclinD3(h), read-out: Inhibition rate", "outline": "as §1"}, "[5]": {"biological_target": "T5, 380 human recombinant protein kinases (Homo sapiens, UniProt Q02763)", "T5 construct": "purchased Eurofins (Celle Lévescault)", "T5 sequence (Q02763 23-1124)": "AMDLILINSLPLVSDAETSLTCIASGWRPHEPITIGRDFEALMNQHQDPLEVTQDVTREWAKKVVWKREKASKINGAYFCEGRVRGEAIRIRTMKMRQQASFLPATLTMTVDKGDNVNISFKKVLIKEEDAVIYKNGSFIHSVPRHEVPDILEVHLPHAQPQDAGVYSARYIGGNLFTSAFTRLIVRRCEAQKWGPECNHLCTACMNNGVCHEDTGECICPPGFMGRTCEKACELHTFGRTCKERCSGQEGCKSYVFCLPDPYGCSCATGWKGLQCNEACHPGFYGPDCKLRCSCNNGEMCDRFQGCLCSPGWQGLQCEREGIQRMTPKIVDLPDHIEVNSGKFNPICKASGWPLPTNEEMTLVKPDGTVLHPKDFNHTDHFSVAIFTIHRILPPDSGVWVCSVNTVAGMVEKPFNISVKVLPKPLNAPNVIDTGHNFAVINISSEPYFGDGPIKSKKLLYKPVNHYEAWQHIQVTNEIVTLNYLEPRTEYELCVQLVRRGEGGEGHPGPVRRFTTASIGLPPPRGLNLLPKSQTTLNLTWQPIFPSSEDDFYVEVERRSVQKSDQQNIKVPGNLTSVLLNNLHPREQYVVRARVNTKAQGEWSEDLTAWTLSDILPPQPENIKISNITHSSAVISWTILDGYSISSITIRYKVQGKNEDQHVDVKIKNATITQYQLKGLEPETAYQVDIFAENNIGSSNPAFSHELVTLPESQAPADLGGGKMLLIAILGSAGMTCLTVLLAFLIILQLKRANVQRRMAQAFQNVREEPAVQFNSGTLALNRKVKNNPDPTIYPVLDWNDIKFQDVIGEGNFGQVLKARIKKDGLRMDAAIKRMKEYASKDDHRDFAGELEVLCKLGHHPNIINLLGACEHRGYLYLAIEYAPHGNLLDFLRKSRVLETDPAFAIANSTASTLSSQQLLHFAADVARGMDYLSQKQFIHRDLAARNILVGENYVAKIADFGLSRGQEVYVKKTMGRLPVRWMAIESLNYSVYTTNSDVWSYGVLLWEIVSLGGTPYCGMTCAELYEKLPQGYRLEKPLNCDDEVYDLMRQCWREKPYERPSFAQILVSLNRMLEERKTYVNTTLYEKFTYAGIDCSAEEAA", "assay": "Eurofins kinase selectivity profile against 380 other human recombinant kinases (Table S2)", "assay_type": "biochemical", "conditions": "Tie2 (h), read-out: Inhibition rate (%)", "outline": "as §1"}, "[6]": {"biological_target": "T6, 380 human recombinant protein kinases (Homo sapiens, UniProt Q15831)", "T6 construct": "purchased Eurofins (Celle Lévescault)", "T6 sequence (Q15831 1-433)": "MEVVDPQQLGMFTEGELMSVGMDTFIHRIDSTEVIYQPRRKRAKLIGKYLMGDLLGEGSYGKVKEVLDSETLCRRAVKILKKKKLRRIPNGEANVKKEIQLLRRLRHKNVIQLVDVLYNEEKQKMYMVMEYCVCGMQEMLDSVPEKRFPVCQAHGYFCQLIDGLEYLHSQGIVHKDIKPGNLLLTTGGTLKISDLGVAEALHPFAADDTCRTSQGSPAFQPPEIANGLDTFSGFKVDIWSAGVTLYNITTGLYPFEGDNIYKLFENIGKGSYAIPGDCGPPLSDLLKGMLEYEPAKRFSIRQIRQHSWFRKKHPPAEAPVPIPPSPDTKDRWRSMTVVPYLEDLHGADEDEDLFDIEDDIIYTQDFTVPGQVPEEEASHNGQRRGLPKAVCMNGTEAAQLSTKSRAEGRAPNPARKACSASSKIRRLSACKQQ", "assay": "Eurofins kinase selectivity profile against 380 other human recombinant kinases (Table S2)", "assay_type": "biochemical", "conditions": "LKB1(h), read-out: Inhibition rate", "outline": "as §1"}, "[7]": {"system": "MRC1 and ARG-1 mRNA in RAW264.7 macrophages", "assay": "RT-PCR of M2 markers in IL-4/IL-13 stimulated RAW264.7 macrophages", "assay_type": "cell-based, mouse", "conditions": "IL-4/IL-13 20 ng/mL", "text": "A previous study has reported that MK2 fostered M2‐like polarization of TAMs, driving a protumor and proangiogenic phenotype which in turn accelerates tumor progression.[21] We thus assessed the influence of compound 11 on macrophage polarization and function. Our experiments used human THP‐1 monocyte induced macrophages, mouse RAW264.7 macrophages, and mouse bone marrow‐derived macrophages (BMDM). These cells were induced into M2‐like macrophages using the classic IL‐4 and IL‐13 stimuli.\nFIGURE 5 Inhibition of pro‐tumorigenic M2‐like polarization in macrophages by compound 11. (A–C) RT‐PCR analysis highlights the impact of compound 11 on MRC1 and ARG‐1 mRNA expression in various macrophage cells treated with IL‐4/IL‐13 alone or combined with compound 11 for 12 h or 24 h. […] Data are shown as the mean ± SD. ^* p < 0.05; ^*** p < 0.001 versus the vehicle group, determined by unpaired t test. […]\nTotal RNA was extracted from cultured cells using the EZ‐press RNA Purification Kit (EZBioscience). Complementary DNA was synthesized using the ABScript III RT Master Mix for qPCR with gDNA remover (ABclonal Technology) and was quantified with primers listed in Table S5. The relative mRNA expression levels were quantified through qPCR using the SYBR green gene expression assay (ABclonal Technology)."}}}
{"smiles": "C=CC(=O)Nc1cc(-c2cc(-c3cc4c([nH]3)CCNC4=O)ccn2)ccc1OC(F)(F)F", "note": "[compound 11]", "values": [{"measurement": "inhibition at 0.01 µM", "setting": "[1]; 10 nM", "result": 0, "unit": "%"}, {"measurement": "inhibition at 0.1 µM", "setting": "[1]; 100 nM", "result": -1, "unit": "%"}, {"measurement": "inhibition at 1 µM", "setting": "[1]; 1000 nM", "result": 3, "unit": "%"}, {"measurement": "inhibition at 0.01 µM", "setting": "[2]; 10 nM", "result": 0, "unit": "%"}, {"measurement": "inhibition at 0.1 µM", "setting": "[2]; 100 nM", "result": 3, "unit": "%"}, {"measurement": "inhibition at 1 µM", "setting": "[2]; 1000 nM", "result": -2, "unit": "%"}, {"measurement": "inhibition at 0.01 µM", "setting": "[3]; 10 nM", "result": 8, "unit": "%"}, {"measurement": "inhibition at 0.1 µM", "setting": "[3]; 100 nM", "result": 2, "unit": "%"}, {"measurement": "inhibition at 1 µM", "setting": "[3]; 1000 nM", "result": 6, "unit": "%"}, {"measurement": "inhibition at 0.01 µM", "setting": "[4]; 10 nM", "result": 2, "unit": "%"}, {"measurement": "inhibition at 0.1 µM", "setting": "[4]; 100 nM", "result": 6, "unit": "%"}, {"measurement": "inhibition at 1 µM", "setting": "[4]; 1000 nM", "result": -3, "unit": "%"}, {"measurement": "inhibition at 0.01 µM", "setting": "[5]; 10 nM", "result": 0, "unit": "%"}, {"measurement": "inhibition at 0.1 µM", "setting": "[5]; 100 nM", "result": 10, "unit": "%"}, {"measurement": "inhibition at 1 µM", "setting": "[5]; 1000 nM", "result": 24, "unit": "%"}, {"measurement": "inhibition at 0.01 µM", "setting": "[6]; 10 nM", "result": -5, "unit": "%"}, {"measurement": "inhibition at 0.1 µM", "setting": "[6]; 100 nM", "result": -3, "unit": "%"}, {"measurement": "inhibition at 1 µM", "setting": "[6]; 1000 nM", "result": -6, "unit": "%"}, {"measurement": "effect on transcriptional level of MRC1 and ARG-1", "setting": "[7]", "result": "significantly suppressed"}]}
